The text below walks through data of article PMC7145717, “A nucleotide-dependent oligomerization of the Escherichia coli replication initiator DnaA requires residue His136 for remodeling of the chromosomal origin” (Nucleic Acids Research, 2019).

Data set [1] concerns the target T1, DnaA (Escherichia coli replication initiator DnaA) (Escherichia coli, UniProt P03004).
T1 construct: full-length, residues 1-467, 10X-histidine-tagged, recombinant from plasmid pZL411, Ni-NTA purified (SAXS samples also Sephacryl-300 gel filtration), ~52 kDa monomer
T1 sequence (P03004 1-467): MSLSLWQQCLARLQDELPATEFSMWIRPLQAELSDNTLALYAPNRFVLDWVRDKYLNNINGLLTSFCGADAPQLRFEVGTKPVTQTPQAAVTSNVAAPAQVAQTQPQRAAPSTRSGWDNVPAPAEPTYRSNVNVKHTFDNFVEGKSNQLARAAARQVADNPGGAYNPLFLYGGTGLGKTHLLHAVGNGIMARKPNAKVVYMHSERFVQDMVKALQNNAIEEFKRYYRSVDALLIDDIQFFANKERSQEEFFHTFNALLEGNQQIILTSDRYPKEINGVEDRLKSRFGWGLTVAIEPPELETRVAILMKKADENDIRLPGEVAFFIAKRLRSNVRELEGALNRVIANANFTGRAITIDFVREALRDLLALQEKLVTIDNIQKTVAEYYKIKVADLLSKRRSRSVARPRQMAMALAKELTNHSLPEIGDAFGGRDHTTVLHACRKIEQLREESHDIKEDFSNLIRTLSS
In words: nitrocellulose filter retention assay. Particulars: read-out: K D (ATP binding). The text has this: (§1) nitrocellulose filter retention assay on DnaA (Escherichia coli replication initiator DnaA)

Data set [2] has as its target T2, DnaA (Escherichia coli replication initiator DnaA) (Escherichia coli, UniProt P03004, F76A).
T2 construct: full-length, residues 1-467, 10X-histidine-tagged, recombinant from plasmid pZL411, Ni-NTA purified (SAXS samples also Sephacryl-300 gel filtration), ~52 kDa monomer
T2 sequence (P03004 1-467 F76A): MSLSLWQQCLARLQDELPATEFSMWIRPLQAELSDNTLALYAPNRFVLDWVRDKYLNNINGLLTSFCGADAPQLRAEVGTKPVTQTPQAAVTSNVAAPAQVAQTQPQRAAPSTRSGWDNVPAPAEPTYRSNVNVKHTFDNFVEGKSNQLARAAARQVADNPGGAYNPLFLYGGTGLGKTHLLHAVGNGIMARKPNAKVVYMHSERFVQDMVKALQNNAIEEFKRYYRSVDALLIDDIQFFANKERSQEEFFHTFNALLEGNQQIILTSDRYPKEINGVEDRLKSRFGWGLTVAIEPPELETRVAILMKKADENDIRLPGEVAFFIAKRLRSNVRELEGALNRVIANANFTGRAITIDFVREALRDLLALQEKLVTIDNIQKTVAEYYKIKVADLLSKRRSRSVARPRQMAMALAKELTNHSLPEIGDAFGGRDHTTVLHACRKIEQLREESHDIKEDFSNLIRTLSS
In words: nitrocellulose filter retention assay. The following applies: read-out: K D (ATP binding).
Description: as §1

Data set [3] deals with T3, DnaA (Escherichia coli replication initiator DnaA) (Escherichia coli, UniProt P03004, F76Y).
T3 construct: full-length, residues 1-467, 10X-histidine-tagged, recombinant from plasmid pZL411, Ni-NTA purified (SAXS samples also Sephacryl-300 gel filtration), ~52 kDa monomer
T3 sequence (P03004 1-467 F76Y): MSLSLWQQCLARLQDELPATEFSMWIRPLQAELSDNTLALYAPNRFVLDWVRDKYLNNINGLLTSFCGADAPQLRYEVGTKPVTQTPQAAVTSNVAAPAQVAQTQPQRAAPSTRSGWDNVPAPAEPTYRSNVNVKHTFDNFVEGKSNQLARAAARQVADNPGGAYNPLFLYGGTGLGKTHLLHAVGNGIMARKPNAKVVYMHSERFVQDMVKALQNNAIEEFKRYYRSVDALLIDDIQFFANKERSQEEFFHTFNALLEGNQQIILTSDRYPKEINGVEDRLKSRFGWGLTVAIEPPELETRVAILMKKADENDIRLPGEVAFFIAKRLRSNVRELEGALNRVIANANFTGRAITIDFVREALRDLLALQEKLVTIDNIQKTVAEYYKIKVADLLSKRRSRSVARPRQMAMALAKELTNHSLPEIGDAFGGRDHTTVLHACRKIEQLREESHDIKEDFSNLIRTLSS
In words: nitrocellulose filter retention assay. Particulars: read-out: K D (ATP binding).
Description: as §1

Data set [4] concerns the target T4, DnaA (Escherichia coli replication initiator DnaA) (Escherichia coli, UniProt P03004, H136A).
T4 construct: full-length, residues 1-467, 10X-histidine-tagged, recombinant from plasmid pZL411, Ni-NTA purified (SAXS samples also Sephacryl-300 gel filtration), ~52 kDa monomer
T4 sequence (P03004 1-467 H136A): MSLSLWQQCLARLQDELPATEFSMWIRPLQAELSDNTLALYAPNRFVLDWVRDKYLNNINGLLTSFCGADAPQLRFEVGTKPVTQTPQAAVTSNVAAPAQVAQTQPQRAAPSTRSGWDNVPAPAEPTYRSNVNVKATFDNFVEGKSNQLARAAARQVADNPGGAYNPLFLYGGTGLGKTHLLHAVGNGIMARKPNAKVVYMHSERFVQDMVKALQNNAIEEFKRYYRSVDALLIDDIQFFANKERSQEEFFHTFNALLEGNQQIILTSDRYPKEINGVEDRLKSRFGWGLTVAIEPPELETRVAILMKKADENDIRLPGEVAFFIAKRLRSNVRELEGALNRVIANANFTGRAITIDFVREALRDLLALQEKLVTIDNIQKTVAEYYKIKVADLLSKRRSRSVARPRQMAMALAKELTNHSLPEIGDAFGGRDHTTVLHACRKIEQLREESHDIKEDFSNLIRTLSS
In words: nitrocellulose filter retention assay. The following applies: read-out: K D (ATP binding).
Description: as §1

Data set [5] addresses T5, DnaA (Escherichia coli replication initiator DnaA) (Escherichia coli, UniProt P03004, H136Q).
T5 construct: full-length, residues 1-467, 10X-histidine-tagged, recombinant from plasmid pZL411, Ni-NTA purified (SAXS samples also Sephacryl-300 gel filtration), ~52 kDa monomer
T5 sequence (P03004 1-467 H136Q): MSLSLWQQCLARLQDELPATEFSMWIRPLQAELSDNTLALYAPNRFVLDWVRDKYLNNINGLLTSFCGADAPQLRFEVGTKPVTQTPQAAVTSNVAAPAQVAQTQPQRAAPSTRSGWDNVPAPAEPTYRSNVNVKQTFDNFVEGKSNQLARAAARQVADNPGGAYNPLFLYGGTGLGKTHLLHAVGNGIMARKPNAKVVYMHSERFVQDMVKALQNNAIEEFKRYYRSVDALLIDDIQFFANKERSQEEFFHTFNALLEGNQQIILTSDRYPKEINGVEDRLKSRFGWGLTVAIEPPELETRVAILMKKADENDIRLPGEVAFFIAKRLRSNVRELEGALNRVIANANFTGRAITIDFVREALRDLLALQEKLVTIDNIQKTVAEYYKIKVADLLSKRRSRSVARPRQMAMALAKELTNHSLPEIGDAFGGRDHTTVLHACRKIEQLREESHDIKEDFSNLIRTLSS
Kind of data set: nitrocellulose filter retention assay. The following applies: read-out: K D (ATP binding).
Description: as §1

Data set [6] has as its target T6, DnaA (Escherichia coli replication initiator DnaA) (Escherichia coli, UniProt P03004, Q156E).
T6 construct: full-length, residues 1-467, 10X-histidine-tagged, recombinant from plasmid pZL411, Ni-NTA purified (SAXS samples also Sephacryl-300 gel filtration), ~52 kDa monomer
T6 sequence (P03004 1-467 Q156E): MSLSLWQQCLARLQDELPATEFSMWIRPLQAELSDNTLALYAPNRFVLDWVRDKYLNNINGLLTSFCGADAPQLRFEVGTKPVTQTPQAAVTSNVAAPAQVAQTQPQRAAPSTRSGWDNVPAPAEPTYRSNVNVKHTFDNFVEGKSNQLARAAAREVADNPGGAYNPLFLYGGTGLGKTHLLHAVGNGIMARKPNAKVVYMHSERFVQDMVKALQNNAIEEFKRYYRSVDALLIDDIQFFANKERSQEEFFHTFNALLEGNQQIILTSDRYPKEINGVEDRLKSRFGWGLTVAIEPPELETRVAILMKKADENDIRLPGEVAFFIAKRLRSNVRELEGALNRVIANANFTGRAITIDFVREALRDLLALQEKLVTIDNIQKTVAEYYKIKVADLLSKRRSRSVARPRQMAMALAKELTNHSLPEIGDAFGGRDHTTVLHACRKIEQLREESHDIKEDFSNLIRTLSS
Kind of data set: nitrocellulose filter retention assay. The following applies: read-out: K D (ATP binding).
Description: as §1

Data set [7] has as its target T7, DnaA (Escherichia coli replication initiator DnaA) (Escherichia coli, UniProt P03004, Q156N).
T7 construct: full-length, residues 1-467, 10X-histidine-tagged, recombinant from plasmid pZL411, Ni-NTA purified (SAXS samples also Sephacryl-300 gel filtration), ~52 kDa monomer
T7 sequence (P03004 1-467 Q156N): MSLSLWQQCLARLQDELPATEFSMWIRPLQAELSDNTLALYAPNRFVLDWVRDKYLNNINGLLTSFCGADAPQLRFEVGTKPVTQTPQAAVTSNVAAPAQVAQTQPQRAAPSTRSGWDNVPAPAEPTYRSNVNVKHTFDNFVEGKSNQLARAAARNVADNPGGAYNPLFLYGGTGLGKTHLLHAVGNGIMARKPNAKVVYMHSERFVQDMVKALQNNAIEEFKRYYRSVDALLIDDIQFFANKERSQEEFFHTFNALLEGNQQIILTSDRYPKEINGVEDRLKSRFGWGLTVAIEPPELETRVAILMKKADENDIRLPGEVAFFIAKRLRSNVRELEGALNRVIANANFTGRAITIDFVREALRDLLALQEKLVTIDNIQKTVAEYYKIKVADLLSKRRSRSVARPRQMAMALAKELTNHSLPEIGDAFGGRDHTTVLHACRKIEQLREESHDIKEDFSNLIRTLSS
In words: nitrocellulose filter retention assay. The following applies: read-out: K D (ATP binding).
Description: as §1

Data set [8] deals with the molecule itself. Kind of data set: cross-linking; amine-specific cross-linker DTSSP; apo or with 0.5 mM ADP, AMP-PNP or ATP; SDS-PAGE and western blot with anti-DnaA antibody. (In general: A western blot detects proteins with antibodies after separation by electrophoresis.)

Consider `Nc1ncnc2c1ncn2[C@@H]1O[C@H](COP(=O)(O)OP(=O)(O)OP(=O)(O)O)[C@@H](O)[C@H]1O` [ATP], for which the Kd amounted to 110 ± 30 nM in data set [1]; 120 ± 30 nM in data set [2]; 140 ± 30 nM in data set [3]; 140 ± 40 nM in data set [4]; 100 ± 20 nM in data set [5]; 100 ± 20 nM in data set [6]. In data set [7], the Kd stood at 100 ± 20 nM.

B1: DnaA(H136A) (natural protein, E. coli, UniProt P03004 1-467, looked up)
chain: MSLSLWQQCLARLQDELPATEFSMWIRPLQAELSDNTLALYAPNRFVLDWVRDKYLNNINGLLTSFCGADAPQLRFEVGTKPVTQTPQAAVTSNVAAPAQVAQTQPQRAAPSTRSGWDNVPAPAEPTYRSNVNVKATFDNFVEGKSNQLARAAARQVADNPGGAYNPLFLYGGTGLGKTHLLHAVGNGIMARKPNAKVVYMHSERFVQDMVKALQNNAIEEFKRYYRSVDALLIDDIQFFANKERSQEEFFHTFNALLEGNQQIILTSDRYPKEINGVEDRLKSRFGWGLTVAIEPPELETRVAILMKKADENDIRLPGEVAFFIAKRLRSNVRELEGALNRVIANANFTGRAITIDFVREALRDLLALQEKLVTIDNIQKTVAEYYKIKVADLLSKRRSRSVARPRQMAMALAKELTNHSLPEIGDAFGGRDHTTVLHACRKIEQLREESHDIKEDFSNLIRTLSS
notes: DnaA, E. coli, amino acid residues 1-467, with H136A; Made by site-directed mutagenesis on pZL411; also called ATP-DnaA(H136A)
With B1, in data set [8], the binding result is “binds”.
